Assay results published in US11419869B2, “Dosage forms and regimens for amino acid compounds” (Pliant Therapeutics, Inc., priority 2019, dated 2022).

Each compound was assayed against recombinant human integrin αvβ6 (Homo sapiens (Human), UniProt P06756+P18564) (assay: Solid Phase Integrin αvβ6 Binding Assay (Examples B1, B2)). Conditions: TGFβ1 LAP ligand, values given in four ranges, read-out: αvβ6 Inhibition IC50 (nM)-range.
Protocol: (§1) Microplates were coated with recombinant human integrin αvβ6 (2 μg/mL) in PBS (100 μL/well 25° C., overnight). The coating solution was removed, washed with wash buffer (0.05% Tween 20; 0.5 mM MnCl2; in 1×TBS). The plate was blocked with 200 μL/well of Block Buffer (1% BSA; 5% sucrose; 0.5 mM MnCl2; in 1×TBS) at 37° C. for 2 h. Dilutions of testing compounds and recombinant TGFβ1 LAP (0.67 μg/mL) in binding buffer (0.05% BSA; 2.5% sucrose; 0.5 mM MnCl2; in 1×TBS) were added. The plate was incubated for 2 hours at 25° C., washed, and incubated for 1 hour with Biotin-Anti-hLAP. Bound antibody was detected by peroxidase-conjugated streptavidin. The IC50 values for testing compounds were calculated by four-parameter logistic regression.
The compounds tested were compound samples prepared according to procedures described in the Synthetic Examples section, with the stereochemical purity as indicated in the Examples.
as §1, with “A third series of exemplary compounds was selected for testing in the solid phase integrin αvβ6 binding assay. The compounds tested were compound samples prepared according to procedures described in the Synthetic Examples section, with the stereochemical purity as indicated in the Examples. As in Example B1, microplates were coated” for “Microplates were coated”, “calculated by a four-parameter logistic” for “calculated by four-parameter logistic”

Sequence of recombinant human integrin αvβ6 (P06756 31-992): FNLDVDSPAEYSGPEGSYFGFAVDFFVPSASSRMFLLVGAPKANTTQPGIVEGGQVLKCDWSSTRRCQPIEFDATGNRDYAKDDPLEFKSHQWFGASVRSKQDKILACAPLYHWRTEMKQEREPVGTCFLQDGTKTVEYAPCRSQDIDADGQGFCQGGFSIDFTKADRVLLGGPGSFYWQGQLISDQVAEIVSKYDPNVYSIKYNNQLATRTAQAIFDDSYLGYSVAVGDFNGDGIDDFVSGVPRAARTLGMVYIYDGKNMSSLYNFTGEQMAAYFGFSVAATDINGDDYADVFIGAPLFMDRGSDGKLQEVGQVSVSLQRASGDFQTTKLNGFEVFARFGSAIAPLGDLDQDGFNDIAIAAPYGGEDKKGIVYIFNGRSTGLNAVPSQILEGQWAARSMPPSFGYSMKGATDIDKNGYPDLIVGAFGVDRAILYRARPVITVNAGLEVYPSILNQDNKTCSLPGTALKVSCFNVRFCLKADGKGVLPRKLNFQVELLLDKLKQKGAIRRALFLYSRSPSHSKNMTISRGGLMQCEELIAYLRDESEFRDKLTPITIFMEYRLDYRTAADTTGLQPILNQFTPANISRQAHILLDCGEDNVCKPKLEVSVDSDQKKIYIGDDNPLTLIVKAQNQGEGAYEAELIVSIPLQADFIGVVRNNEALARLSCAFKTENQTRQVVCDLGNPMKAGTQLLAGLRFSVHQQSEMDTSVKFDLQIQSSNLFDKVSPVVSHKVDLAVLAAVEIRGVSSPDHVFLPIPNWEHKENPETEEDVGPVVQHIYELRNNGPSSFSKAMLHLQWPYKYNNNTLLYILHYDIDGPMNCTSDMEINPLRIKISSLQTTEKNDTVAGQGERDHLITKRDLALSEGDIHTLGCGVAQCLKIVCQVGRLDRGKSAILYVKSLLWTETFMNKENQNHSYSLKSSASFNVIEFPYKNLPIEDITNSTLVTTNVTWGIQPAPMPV
Sequence of recombinant human integrin αvβ6 (P18564 22-707): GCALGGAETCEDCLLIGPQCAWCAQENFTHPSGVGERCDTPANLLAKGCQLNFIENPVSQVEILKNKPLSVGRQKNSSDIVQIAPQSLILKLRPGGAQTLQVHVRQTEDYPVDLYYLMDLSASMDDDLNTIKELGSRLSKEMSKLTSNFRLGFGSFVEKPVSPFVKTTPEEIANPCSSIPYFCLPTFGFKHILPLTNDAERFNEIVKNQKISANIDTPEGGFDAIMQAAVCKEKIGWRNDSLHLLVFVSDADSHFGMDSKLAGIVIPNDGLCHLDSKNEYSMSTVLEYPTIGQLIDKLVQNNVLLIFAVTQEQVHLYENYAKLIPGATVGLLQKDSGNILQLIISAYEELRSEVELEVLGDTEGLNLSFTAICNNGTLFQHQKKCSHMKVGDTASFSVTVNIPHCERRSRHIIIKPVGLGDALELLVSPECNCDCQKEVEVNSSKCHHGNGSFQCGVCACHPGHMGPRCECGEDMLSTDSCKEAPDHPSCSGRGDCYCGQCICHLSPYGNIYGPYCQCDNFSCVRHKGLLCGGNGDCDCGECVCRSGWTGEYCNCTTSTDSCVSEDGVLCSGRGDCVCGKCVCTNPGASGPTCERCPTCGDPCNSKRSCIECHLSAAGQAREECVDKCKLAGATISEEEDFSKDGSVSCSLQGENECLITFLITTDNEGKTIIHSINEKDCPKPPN

SMILES | IC50
COCCN(CCCCc1ccc2c(n1)NCCC2)CC[C@H](Nc1nccc2ccccc12)C(=O)O [Compound 34, (S)-2-(isoquinolin-1-ylamino)-4-((2-methoxyethyl) (4-(5,6,7,8-tetrahydro-1,8-naphthyridin-2-yl)butyl)amino) butanoic acid] | > 1000 nM
COCCN(CCCCc1ccc2c(n1)NCCC2)CC[C@H](Nc1ccnc2ccccc12)C(=O)O [Compound 36, (S)-4-((2-methoxyethyl) (4-(5,6,7,8-tetrahydro-1,8-naphthyridin-2-yl)butyl)amino)-2-(quinolin-4-ylamino) butanoic acid] | > 1000 nM
COCCN(CCCCc1ccc2c(n1)NCCC2)CC[C@H](Nc1cc(-n2cccn2)ncn1)C(=O)O [Compound 44, (S)-2-((6-(1H-pyrazol-1-yl)pyrimidin-4-yl)amino)-4-((2-methoxyethyl) (4-(5,6,7,8-tetrahydro-1,8-naphthyridin-2-yl)butyl)amino) butanoic acid] | < 50 nM
Cc1cc(C)n(CCN(CCCCc2ccc3c(n2)NCCC3)CC[C@H](Nc2ncnc3ccccc23)C(=O)O)n1 [Compound 45, (S)-4-((2-(3,5-dimethyl-1H-pyrazol-1-yl)ethyl) (4-(5,6,7,8-tetrahydro-1,8-naphthyridin-2-yl)butyl)amino)-2-(quinazolin-4-ylamino) butanoic acid] | < 50 nM
COC[C@@H](F)CN(CCCCc1ccc2c(n1)NCCC2)CC[C@H](Nc1nc(C)nc2ccccc12)C(=O)O [Compound 46, (S)-4-(((S)-2-fluoro-3-methoxypropyl) (4-(5,6,7,8-tetrahydro-1,8-naphthyridin-2-yl)butyl)amino)-2-((2-methylquinazolin-4-yl)amino) butanoic acid] | < 50 nM
O=C(O)[C@H](CCN(CCCCc1ccc2c(n1)NCCC2)CCOc1cc(F)cc(F)c1)Nc1ncnc2ccccc12 [Compound 47, (S)-4-((2-(3,5-difluorophenoxy)ethyl) (4-(5,6,7,8-tetrahydro-1,8-naphthyridin-2-yl)butyl)amino)-2-(quinazolin-4-ylamino) butanoic acid] | < 50 nM
O=C(O)[C@H](CCN(CCCCc1ccc2c(n1)NCCC2)CCOc1ccccn1)Nc1ncnc2c(Cl)cccc12 [Compound 48, (S)-2-((8-chloroquinazolin-4-yl)amino)-4-((2-(pyridin-2-yloxy)ethyl) (4-(5,6,7,8-tetrahydro-1,8-naphthyridin-2-yl)butyl)amino) butanoic acid] | < 50 nM
O=C(O)[C@H](CCN(CCCCc1ccc2c(n1)NCCC2)CCOc1ccccn1)Nc1ncnc2ccccc12 [Compound 49, (S)-4-((2-(pyridin-2-yloxy)ethyl) (4-(5,6,7,8-tetrahydro-1,8-naphthyridin-2-yl)butyl)amino)-2-(quinazolin-4-ylamino) butanoic acid] | < 50 nM
O=C(O)[C@H](CCN(CCCCc1ccc2c(n1)NCCC2)CCOCC(F)F)Nc1ncnc2ccccc12 [Compound 50, (S)-4-((2-(2,2-difluoroethoxy)ethyl) (4-(5,6,7,8-tetrahydro-1,8-naphthyridin-2-yl)butyl)amino)-2-(quinazolin-4-ylamino) butanoic acid] | < 50 nM
O=C(O)[C@H](CCN(CCCCc1ccc2c(n1)NCCC2)CCOCC(F)(F)F)Nc1ncnc2cccnc12 [Compound 51, (S)-2-(pyrido[3,2-d]pyrimidin-4-ylamino)-4-((4-(5,6,7,8-tetrahydro-1,8-naphthyridin-2-yl)butyl) (2-(2,2,2-trifluoroethoxy)ethyl)amino) butanoic acid] | < 50 nM
Cc1ncccc1OCCN(CCCCc1ccc2c(n1)NCCC2)CC[C@H](Nc1ncnc2ccccc12)C(=O)O [Compound 52, (S)-4-((2-((2-methylpyridin-3-yl)oxy)ethyl) (4-(5,6,7,8-tetrahydro-1,8-naphthyridin-2-yl)butyl)amino)-2-(quinazolin-4-ylamino) butanoic acid] | < 50 nM
Cc1nc(N[C@@H](CCN(CCCCc2ccc3c(n2)NCCC3)CCOc2cccnc2C)C(=O)O)c2ccc(F)cc2n1 [Compound 53, (S)-2-((7-fluoro-2-methylquinazolin-4-yl)amino)-4-((2-((2-methylpyridin-3-yl)oxy)ethyl) (4-(5,6,7,8-tetrahydro-1,8-naphthyridin-2-yl)butyl)amino) butanoic acid] | < 50 nM
Cc1ncccc1OCCN(CCCCc1ccc2c(n1)NCCC2)CC[C@H](Nc1ncnc2cccnc12)C(=O)O [Compound 54, (S)-4-((2-((2-methylpyridin-3-yl)oxy)ethyl) (4-(5,6,7,8-tetrahydro-1,8-naphthyridin-2-yl)butyl)amino)-2-(pyrido[3,2-d]pyrimidin-4-ylamino) butanoic acid] | < 50 nM
CCOCCN(CCCCc1ccc2c(n1)NCCC2)CC[C@H](Nc1ncnc2ccccc12)C(=O)O [Compound 55, (S)-4-((2-ethoxyethyl) (4-(5,6,7,8-tetrahydro-1,8-naphthyridin-2-yl)butyl)amino)-2-(quinazolin-4-ylamino) butanoic acid] | < 50 nM
Cc1ccc(OCCN(CCCCc2ccc3c(n2)NCCC3)CC[C@H](Nc2nc(C)nc3cc(F)ccc23)C(=O)O)cn1 [Compound 56, (S)-2-((7-fluoro-2-methylquinazolin-4-yl)amino)-4-((2-((6-methylpyridin-3-yl)oxy)ethyl) (4-(5,6,7,8-tetrahydro-1,8-naphthyridin-2-yl)butyl)amino) butanoic acid] | < 50 nM
Cc1ccc(OCCN(CCCCc2ccc3c(n2)NCCC3)CC[C@H](Nc2ncnc3cccnc23)C(=O)O)cn1 [Compound 57, (S)-4-((2-((6-methylpyridin-3-yl)oxy)ethyl) (4-(5,6,7,8-tetrahydro-1,8-naphthyridin-2-yl)butyl)amino)-2-(pyrido[3,2-d]pyrimidin-4-ylamino) butanoic acid] | < 50 nM
O=C(O)[C@H](CCN(CCCCc1ccc2c(n1)NCCC2)CCOc1cncc(F)c1)Nc1ncnc2ccccc12 [Compound 58, (S)-4-((2-((5-fluoropyridin-3-yl)oxy)ethyl) (4-(5,6,7,8-tetrahydro-1,8-naphthyridin-2-yl)butyl)amino)-2-(quinazolin-4-ylamino) butanoic acid] | < 50 nM

Next, values leading:

IC50 | SMILES
< 50 nM | O=C(O)[C@H](CCN(CCCCc1ccc2c(n1)NCCC2)CCOC(F)F)Nc1ncnc2ccccc12 [Compound 35, (S)-4-((2-(difluoromethoxy)ethyl) (4-(5,6,7,8-tetrahydro-1,8-naphthyridin-2-yl)butyl)amino)-2-(quinazolin-4-ylamino) butanoic acid]
< 50 nM | COCCN(CCCCc1ccc2c(n1)NCCC2)CC[C@H](Nc1ncnc2c(Cl)cccc12)C(=O)O [Compound 38, (S)-2-((8-chloroquinazolin-4-yl)amino)-4-((2-methoxyethyl) (4-(5,6,7,8-tetrahydro-1,8-naphthyridin-2-yl)butyl)amino) butanoic acid]
< 50 nM | O=C(O)[C@H](CCN(CCCCc1ccc2c(n1)NCCC2)CCOCC(F)(F)F)Nc1ncnc2ccccc12 [Compound 39, (S)-2-(quinazolin-4-ylamino)-4-((4-(5,6,7,8-tetrahydro-1,8-naphthyridin-2-yl)butyl) (2-(2,2,2-trifluoroethoxy)ethyl)amino) butanoic acid]
< 50 nM | Cc1nc(N[C@@H](CCN(CCCCc2ccc3c(n2)NCCC3)CCOc2ccc(F)cc2)C(=O)O)c2ccc(F)cc2n1 [Compound 40, (S)-2-((7-fluoro-2-methylquinazolin-4-yl)amino)-4-((2-(4-fluorophenoxy)ethyl) (4-(5,6,7,8-tetrahydro-1,8-naphthyridin-2-yl)butyl)amino) butanoic acid]
< 50 nM | COc1ccc2c(N[C@@H](CCN(CCCF)CCCCc3ccc4c(n3)NCCC4)C(=O)O)ncnc2c1 [Compound 41, (S)-4-((3-fluoropropyl) (4-(5,6,7,8-tetrahydro-1,8-naphthyridin-2-yl)butyl)amino)-2-((7-methoxyquinazolin-4-yl)amino) butanoic acid]
< 50 nM | Cc1nc(N[C@@H](CCN(CCCCc2ccc3c(n2)NCCC3)CCOC2CC2(F)F)C(=O)O)c2ccc(F)cc2n1 (stereo partly drawn) [Compound 42, (2S)-4-((2-(2,2-difluorocyclopropoxy)ethyl) (4-(5,6,7,8-tetrahydro-1,8-naphthyridin-2-yl)butyl)amino)-2-((7-fluoro-2-methylquinazolin-4-yl)amino) butanoic acid]
< 50 nM | COc1cccc2c(N[C@@H](CCN(CCCF)CCCCc3ccc4c(n3)NCCC4)C(=O)O)ncnc12 [Compound 43, (S)-4-((3-fluoropropyl) (4-(5,6,7,8-tetrahydro-1,8-naphthyridin-2-yl)butyl)amino)-2-((8-methoxyquinazolin-4-yl)amino) butanoic acid]
